Data taken from US9833497B2, “Human originated EGF domain proteins and use of the same” (CHENGDU SOURCEBIO LIMITED-LIABILITY COMPANY, priority 2013, dated 2017).

Tests used:
Type in all cases: cell-based
Proteus mirabilis = assay: MIC against Gram-negative bacteria: Proteus mirabilis; settings: for MIC P. mirabilis: two-fold serial dilution
How it was run: (§1)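 Bacteria grown in LB at 37° C to McFarland 0.5, resuspended and seeded at 5×10^5 CFU/mL in 96-well plates. Purified human EGF-domain proteins two-fold serially diluted, triplicate wells; cultured at 37° C, shaking 175 rpm. MIC = lowest protein concentration with no growth.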

E. coli BL21 = assay: MIC against Gram-negative bacteria: E. coli BL21; settings: for MIC E. coli BL21: two-fold serial dilution
How it was run: as §1

Enterobacter cloacae = assay: MIC against Gram-negative bacteria: Enterobacter cloacae; settings: for MIC E. cloacae: two-fold serial dilution
How it was run: as §1

Klebsiella pneumonia = assay: MIC against Gram-negative bacteria: Klebsiella pneumonia; settings: for MIC K. pneumonia: two-fold serial dilution
How it was run: as §1

Pseudomonas aeruginosa = assay: MIC against Gram-negative bacteria: Pseudomonas aeruginosa; settings: for MIC P. aeruginosa: two-fold serial dilution
How it was run: as §1

Serratia marcescens = assay: MIC against Gram-negative bacteria: Serratia marcescens; settings: for MIC S. marcescens: two-fold serial dilution
How it was run: as §1

Aeromonas hydrophila = assay: MIC against Gram-negative bacteria: Aeromonas hydrophila; settings: for MIC A. hydrophila: two-fold serial dilution
How it was run: as §1

Citrobacter diversus = assay: MIC against Gram-negative bacteria: Citrobacter diversus; settings: for MIC C. diversus: two-fold serial dilution
How it was run: as §1

Moraxella catarrhalis = assay: MIC against Gram-negative bacteria: Moraxella catarrhalis; settings: for MIC M. catarrhalis: two-fold serial dilution
How it was run: as §1

E. coli DH5α = assay: Antibacterial activity: MIC and growth curve against E. coli DH5α in 96-well plate; settings: minimal inhibitory concentration against E. coli DH5α; 96-well plate, 5×10^5 CFU/mL, 37° C., judged after 8 h
How it was run: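 Log-phase bacteria (OD600 ~0.5) resuspended in LB at 5×10^5 CFU/mL, exposed to recombinant protein at 50, 25, 12.5 μg/mL final in triplicate, 37 °C shaking at 175 rpm. OD600 read every 30 min; MIC is lowest concentration showing no growth.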

Proteus vulgaris = assay: MIC against Gram-negative bacteria: Proteus vulgaris; settings: for MIC P. vulgaris: two-fold serial dilution
How it was run: as §1

[1] = P. mirabilis, 10 h cultivation at 37° C., 5×10^5 CFU/mL
[2] = E. coli BL21, 10 h cultivation at 37° C., 5×10^5 CFU/mL
[3] = E. cloacae, 10 h cultivation at 37° C., 5×10^5 CFU/mL
[4] = K. pneumonia, 10 h cultivation at 37° C., 5×10^5 CFU/mL
[5] = P. aeruginosa, 10 h cultivation at 37° C., 5×10^5 CFU/mL
[6] = S. marcescens, 10 h cultivation at 37° C., 5×10^5 CFU/mL
[7] = A. hydrophila, 10 h cultivation at 37° C., 5×10^5 CFU/mL
[8] = C. diversus, 10 h cultivation at 37° C., 5×10^5 CFU/mL
[9] = M. catarrhalis, 10 h cultivation at 37° C., 5×10^5 CFU/mL
[10] = P. vulgaris, 10 h cultivation at 37° C., 5×10^5 CFU/mL
[11] = 10 h cultivation at 37° C., 5×10^5 CFU/mL

| Substance | MIC (E. coli DH5α) [µg/mL] | MIC (μg/mL) P. mirabilis (Proteus mirabilis; [1]) [µg/mL] | MIC (μg/mL) E. coli BL21 (E. coli BL21; [2]) [µg/mL] | MIC (μg/mL) E. cloacae (Enterobacter cloacae; [3]) [µg/mL] | MIC (μg/mL) K. pneumonia (Klebsiella pneumonia; [4]) [µg/mL] | MIC (μg/mL) P. aeruginosa (Pseudomonas aeruginosa; [5]) [µg/mL] | MIC (μg/mL) S. marcescens (Serratia marcescens; [6]) [µg/mL] | MIC (μg/mL) A. hydrophila (Aeromonas hydrophila; [7]) [µg/mL] | MIC (μg/mL) C. diversus (Citrobacter diversus; [8]) [µg/mL] | MIC (μg/mL) M. catarrhalis (Moraxella catarrhalis; [9]) [µg/mL] | MIC (μg/mL) P. vulgaris (Proteus vulgaris; [10]) [µg/mL] | MIC P. mirabilis (Proteus mirabilis; [11]) [µg/mL] | MIC E. coli BL21 (E. coli BL21; [11]) [µg/mL] | MIC E. cloacae (Enterobacter cloacae; [11]) [µg/mL] | MIC K. pneumonia (Klebsiella pneumonia; [11]) [µg/mL] | MIC P. aeruginosa (Pseudomonas aeruginosa; [11]) [µg/mL] | MIC S. marcescens (Serratia marcescens; [11]) [µg/mL] | MIC A. hydrophila (Aeromonas hydrophila; [11]) [µg/mL] | MIC C. diversus (Citrobacter diversus; [11]) [µg/mL] | MIC M. catarrhalis (Moraxella catarrhalis; [11]) [µg/mL] | other results |
| --- | --- | --- | --- | --- | --- | --- | --- | --- | --- | --- | --- | --- | --- | --- | --- | --- | --- | --- | --- | --- | --- |
| PRT1014 (LRDFCSANPCVNGGVCLATYPQIQCHCPPGFEGHACE; listed as Homo sapiens) | 12.5 |  |  |  |  |  |  |  |  |  |  |  |  |  |  |  |  |  |  |  | MIC (Proteus mirabilis; P. mirabilis, 10 h cultivation at 37° C.): 12.5 µg/mL; MIC (E. coli BL21; E. coli BL21, 10 h cultivation at 37° C.): 25 µg/mL; MIC (Enterobacter cloacae; E. cloacae, 10 h cultivation at 37° C.): 12.5 µg/mL; MIC (Klebsiella pneumonia; K. pneumonia, 10 h cultivation at 37° C.): 25 µg/mL; MIC (Pseudomonas aeruginosa; P. aeruginosa, 10 h cultivation at 37° C.): 50 µg/mL; MIC (Serratia marcescens; S. marcescens, 10 h cultivation at 37° C.): 25 µg/mL; MIC (Aeromonas hydrophila; A. hydrophila, 10 h cultivation at 37° C.): 50 µg/mL; MIC (Citrobacter diversus; C. diversus, 10 h cultivation at 37° C.): 12.5 µg/mL; MIC (Moraxella catarrhalis; M. catarrhalis, 10 h cultivation at 37° C.): 50 µg/mL; MIC (Proteus vulgaris; P. vulgaris, 10 h cultivation at 37° C.): 50 µg/mL |
| PRT255 (DVDECVGLQPVCPQGTTCINTGGSFQCVSPECPEG; listed as Homo sapiens) | 12.5 | 100 | 12.5 | 12.5 | 12.5 | 12.5 | 12.5 | 25 | 12.5 | 25 | 25 |  |  |  |  |  |  |  |  |  |  |
| PRT224 (DVNECDMGAPCEQRCFNSYGTFLCRCHQGYELHRDGFSCS; listed as Homo sapiens) | 25 | 12.5 | 12.5 | 12.5 | 12.5 | 25 | 50 | 12.5 | 12.5 | 12.5 | 12.5 |  |  |  |  |  |  |  |  |  |  |
| PRT1134 (NVDDCLMRPCANGATCLDGINRFSCLCPEGFAGRFCT; listed as Homo sapiens) | 12.5 |  |  |  |  |  |  |  |  |  |  | 12.5 | 25 | 12.5 | 25 | 12.5 | 12.5 | 12.5 | 12.5 | 12.5 | MIC P. vulgaris (Proteus vulgaris; [11]): 50 µg/mL |
| PRT1190 (DLNYCGSHHPCTNGGTCINAEPDQYRCTCPDGYSGRNCE; listed as Homo sapiens) | 50 |  |  |  |  |  |  |  |  |  |  | 25 | 12.5 | 50 | 12.5 | 25 | 50 | 12.5 | 25 | 50 | MIC P. vulgaris (Proteus vulgaris; [11]): 12.5 µg/mL |
| PRT28 (VDACLLNPCQNQGSCRHLPGAPHGYTCDCVGGYFGHHCE; listed as Homo sapiens) | 50 |  |  |  |  |  |  |  |  |  |  |  |  |  |  |  |  |  |  |  | MIC (μg/mL) P. mirabilis (Proteus mirabilis; Proteus mirabilis, 96-well plate, 5×10^5 CFU/mL, 37° C., 10 h): 12.5 µg/mL; MIC (μg/mL) E. coli BL21 (E. coli BL21; E. coli BL21, 96-well plate, 5×10^5 CFU/mL, 37° C., 10 h): 25 µg/mL; MIC (μg/mL) E. cloacae (Enterobacter cloacae; Enterobacter cloacae, 96-well plate, 5×10^5 CFU/mL, 37° C., 10 h): 25 µg/mL; MIC (μg/mL) K. pneumonia (Klebsiella pneumonia; Klebsiella pneumonia, 96-well plate, 5×10^5 CFU/mL, 37° C., 10 h): 50 µg/mL; MIC (μg/mL) P. aeruginosa (Pseudomonas aeruginosa; Pseudomonas aeruginosa, 96-well plate, 5×10^5 CFU/mL, 37° C., 10 h): 12.5 µg/mL; MIC (μg/mL) S. marcescens (Serratia marcescens; Serratia marcescens, 96-well plate, 5×10^5 CFU/mL, 37° C., 10 h): 50 µg/mL; MIC (μg/mL) A. hydrophila (Aeromonas hydrophila; Aeromonas hydrophila, 96-well plate, 5×10^5 CFU/mL, 37° C., 10 h): 12.5 µg/mL; MIC (μg/mL) C. diversus (Citrobacter diversus; Citrobacter diversus, 96-well plate, 5×10^5 CFU/mL, 37° C., 10 h): 25 µg/mL; MIC (μg/mL) M. catarrhalis (Moraxella catarrhalis; Moraxella catarrhalis, 96-well plate, 5×10^5 CFU/mL, 37° C., 10 h): 50 µg/mL; MIC (μg/mL) P. vulgaris (Proteus vulgaris; Proteus vulgaris, 96-well plate, 5×10^5 CFU/mL, 37° C., 10 h): 25 µg/mL |
| PRT369 (DVDECLSSPCVSGVCRNLAGSYTCKCGPGSRLDPSGTFCL; listed as Homo sapiens) | 50 |  |  |  |  |  |  |  |  |  |  |  |  |  |  |  |  |  |  |  | MIC (Proteus mirabilis; [1]): 12.5 µg/mL; MIC (E. coli BL21; [2]): 25 µg/mL; MIC (Enterobacter cloacae; [3]): 25 µg/mL; MIC (Klebsiella pneumonia; [4]): 50 µg/mL; MIC (Pseudomonas aeruginosa; [5]): 12.5 µg/mL; MIC (Serratia marcescens; [6]): 12.5 µg/mL; MIC (Aeromonas hydrophila; [7]): 12.5 µg/mL; MIC (Citrobacter diversus; [8]): 25 µg/mL; MIC (Moraxella catarrhalis; [9]): 50 µg/mL; MIC (Proteus vulgaris; [10]): 50 µg/mL |
| PRT145 (DVNECEIYSGTPLSCQNGGTCVNTMGSYSCHCPPETYGPQCA; listed as Homo sapiens) | 12.5 | 25 | 12.5 | 12.5 | 12.5 | 12.5 | 25 | 12.5 | 12.5 | 12.5 | 12.5 |  |  |  |  |  |  |  |  |  |  |
| PRT1113 (HVDPCHSAPCARGRCHTHPDGRFECRCPPGFGGPRCR; listed as Homo sapiens) | 12.5 |  |  |  |  |  |  |  |  |  |  | 25 | 12.5 | 12.5 | 12.5 | 12.5 | 25 | 12.5 | 50 | 12.5 | MIC P. vulgaris (Proteus vulgaris; [11]): 50 µg/mL |
| PRT1420 (GAWDCSVENGGCEHACNAIPGAPRCQCPAGAALQADGRSCT; listed as Homo sapiens) | 12.5 |  |  |  |  |  |  |  |  |  |  |  |  |  |  |  |  |  |  |  | MIC against P. mirabilis (Proteus mirabilis; Proteus mirabilis, 5×10^5 CFU/mL, 10 h cultivation at 37° C.): 12.5 µg/mL; MIC against E. coli BL21 (E. coli BL21; E. coli BL21, 5×10^5 CFU/mL, 10 h cultivation at 37° C.): 12.5 µg/mL; MIC against E. cloacae (Enterobacter cloacae; Enterobacter cloacae, 5×10^5 CFU/mL, 10 h cultivation at 37° C.): 12.5 µg/mL; MIC against K. pneumonia (Klebsiella pneumonia; Klebsiella pneumonia, 5×10^5 CFU/mL, 10 h cultivation at 37° C.): 12.5 µg/mL; MIC against P. aeruginosa (Pseudomonas aeruginosa; Pseudomonas aeruginosa, 5×10^5 CFU/mL, 10 h cultivation at 37° C.): 12.5 µg/mL; MIC against S. marcescens (Serratia marcescens; Serratia marcescens, 5×10^5 CFU/mL, 10 h cultivation at 37° C.): 50 µg/mL; MIC against A. hydrophila (Aeromonas hydrophila; Aeromonas hydrophila, 5×10^5 CFU/mL, 10 h cultivation at 37° C.): 25 µg/mL; MIC against C. diversus (Citrobacter diversus; Citrobacter diversus, 5×10^5 CFU/mL, 10 h cultivation at 37° C.): 12.5 µg/mL; MIC against M. catarrhalis (Moraxella catarrhalis; Moraxella catarrhalis, 5×10^5 CFU/mL, 10 h cultivation at 37° C.): 25 µg/mL; MIC against P. vulgaris (Proteus vulgaris; Proteus vulgaris, 5×10^5 CFU/mL, 10 h cultivation at 37° C.): 25 µg/mL |
